Values after ≈ are worked out from the molar mass of the structure shown. Where a SMILES comes first, the peptide text is derived from it.
Assays:
[1] = tested on: Staphylococcus aureus; test: Antibacterial activity against Staphylococcus aureus ATCC 25923 incubated for 18 to 24 hrs by broth microdilution method; format: functional
[2] = tested on: Staphylococcus aureus; test: Antibacterial activity against Staphylococcus aureus ATCC 29213 incubated for 18 to 24 hrs by broth microdilution method; format: functional
[3] = tested on: Salmonella typhimurium; test: Antibacterial activity against Salmonella enterica serovar typhimurium C77-31 incubated for 18 to 24 hrs by broth microdilution method; format: functional, Salmonella enterica subsp. enterica serovar Typhimurium
[4] = tested on: Escherichia coli; test: Antibacterial activity against Escherichia coli UB1005 incubated for 18 to 24 hrs by broth microdilution method; format: functional
[5] = tested on: Escherichia coli; test: Antibacterial activity against Escherichia coli ATCC 25922 incubated for 18 to 24 hrs by broth microdilution method; format: functional
[6] = tested on: Staphylococcus epidermidis; test: Antibacterial activity against Staphylococcus epidermidis ATCC 12228 incubated for 18 to 24 hrs by broth microdilution method; format: functional
[7] = tested on: Escherichia coli; test: Antibacterial activity against Escherichia coli 20411 clinical isolate incubated for 18 to 24 hrs by broth microdilution method; format: functional
[8] = tested on: Acinetobacter baumannii; test: Antibacterial activity against Acinetobacter baumannii AB1901 clinical isolate incubated for 18 to 24 hrs by broth microdilution method; format: functional
[9] = tested on: Acinetobacter baumannii; test: Antibacterial activity against Acinetobacter baumannii AB1902 clinical isolate incubated for 18 to 24 hrs by broth microdilution method; format: functional
[10] = tested on: Pseudomonas aeruginosa; test: Antibacterial activity against Pseudomonas aeruginosa 25349 clinical isolate incubated for 18 to 24 hrs by broth microdilution method; format: functional
[11] = tested on: Staphylococcus aureus; test: Antibacterial activity against Staphylococcus aureus 11011 incubated for 18 to 24 hrs by broth microdilution method; format: functional
[12] = tested on: Erythrocyte; test: Haemolytic activity in human erythrocytes assessed as lowest concentration causing 5% hemolysis after 1 hr; format: ADME, cell-based
[13] = Therapeutic index, ratio of MHC for human RBC to geometric mean of peptide MIC for Escherichia coli ATCC 25922; format: toxicity; details: pooled result: one value given for 6 cell lines, strains, targets or settings, read-out: TI
[14] = Cytotoxicity against mouse RAW264.7 cells assessed as cell survival at < 32 uM after 24 hrs by MTT assay; format: cell-based; details: read-out: Activity

SMILES	MIC [1] [µM]	MIC [2] [µM]	MIC [3] [µM]	MIC [4] [µM]	MIC [5] [µM]	MIC [6] [µM]	MIC [7] [µM]	MIC [8] [µM]	MIC [9] [µM]	MIC [10] [µM]	MIC [11] [µM]	MHC [12] [µM]	selectivity ratio [13]	viability at 24 h [14] [%]
CC(C)[C@H](NC(=O)[C@H](CCCCN)NC(=O)[C@H](Cc1c[nH]c2ccccc12)NC(=O)[C@H](CCCCN)NC(=O)[C@@H](NC(=O)[C@H](CCCCN)NC(=O)[C@H](Cc1c[nH]c2ccccc12)NC(=O)[C@H](CCCCN)NC(=O)[C@@H](NC(=O)[C@H](CCCCN)NC(=O)[C@@H](N)Cc1c[nH]c2ccccc12)C(C)C)C(C)C)C(=O)N[C@@H](CCCCN)C(N)=O (H-WKVKWKVKWKVK-NH2)	2 (≈ 3.28 µg/mL)	1 (≈ 1.64 µg/mL)	2 (≈ 3.28 µg/mL)	2 (≈ 3.28 µg/mL)	2 (≈ 3.28 µg/mL)	2 (≈ 3.28 µg/mL)	1 (≈ 1.64 µg/mL)	2 (≈ 3.28 µg/mL)	1 (≈ 1.64 µg/mL)	4 (≈ 6.57 µg/mL)	2 (≈ 3.28 µg/mL)	> 128	144	> 90
CC[C@H]1OC(=O)[C@H](C)[C@@H](O[C@H]2C[C@@](C)(OC)[C@@H](O)[C@H](C)O2)[C@H](C)[C@@H](O[C@@H]2O[C@H](C)C[C@H](N(C)C)[C@H]2O)[C@](C)(O)C[C@@H](C)C(=O)[C@H](C)[C@@H](O)[C@]1(C)O [ERYTHROMYCIN]	0.5 (≈ 0.367 µg/mL)	0.5 (≈ 0.367 µg/mL)	32 (≈ 23.5 µg/mL)	32 (≈ 23.5 µg/mL)	32 (≈ 23.5 µg/mL)	0.25 (≈ 0.183 µg/mL)	64 (≈ 47 µg/mL)	> 128	> 128	128 (≈ 93.9 µg/mL)	1 (≈ 0.734 µg/mL)			
CC(C)C[C@H](NC(=O)[C@H](CCCNC(=N)N)NC(=O)[C@H](Cc1c[nH]c2ccccc12)NC(=O)[C@H](CCCNC(=N)N)NC(=O)[C@@H](NC(=O)[C@H](CCCNC(=N)N)NC(=O)[C@H](Cc1c[nH]c2ccccc12)NC(=O)[C@H](CCCNC(=N)N)NC(=O)[C@H](CC(C)C)NC(=O)[C@H](CCCNC(=N)N)NC(=O)[C@@H](N)Cc1c[nH]c2ccccc12)[C@@H](C)O)C(=O)N[C@@H](CCCNC(=N)N)C(N)=O (H-WRLRWRTRWRLR-NH2)	2 (≈ 3.68 µg/mL)	2 (≈ 3.68 µg/mL)	4 (≈ 7.36 µg/mL)	4 (≈ 7.36 µg/mL)	4 (≈ 7.36 µg/mL)	2 (≈ 3.68 µg/mL)	2 (≈ 3.68 µg/mL)	4 (≈ 7.36 µg/mL)	4 (≈ 7.36 µg/mL)	16 (≈ 29.4 µg/mL)	2 (≈ 3.68 µg/mL)	> 128	90.5	> 90
CC[C@H](C)[C@H](NC(=O)[C@H](CCCNC(=N)N)NC(=O)[C@H](Cc1c[nH]c2ccccc12)NC(=O)[C@H](CCCNC(=N)N)NC(=O)[C@@H](NC(=O)[C@H](CCCCN)NC(=O)[C@H](Cc1c[nH]c2ccccc12)NC(=O)[C@H](CCCNC(=N)N)NC(=O)[C@@H](NC(=O)[C@H](CCCNC(=N)N)NC(=O)[C@@H](N)Cc1c[nH]c2ccccc12)[C@@H](C)CC)[C@@H](C)O)C(=O)N[C@@H](CCCCN)C(N)=O (H-WRIRWKTRWRIK-NH2)	2 (≈ 3.57 µg/mL)	2 (≈ 3.57 µg/mL)	2 (≈ 3.57 µg/mL)	2 (≈ 3.57 µg/mL)	4 (≈ 7.14 µg/mL)	2 (≈ 3.57 µg/mL)	2 (≈ 3.57 µg/mL)	2 (≈ 3.57 µg/mL)	2 (≈ 3.57 µg/mL)	8 (≈ 14.3 µg/mL)	2 (≈ 3.57 µg/mL)	> 128	114	> 90
CN[C@H](CC(C)C)C(=O)N[C@H]1C(=O)N[C@@H](CC(N)=O)C(=O)N[C@H]2C(=O)N[C@H]3C(=O)N[C@H](C(=O)N[C@H](C(=O)O)c4cc(O)cc(O)c4-c4cc3ccc4O)[C@H](O)c3ccc(c(Cl)c3)Oc3cc2cc(c3O[C@@H]2O[C@H](CO)[C@@H](O)[C@H](O)[C@H]2O[C@H]2C[C@](C)(N)[C@H](O)[C@H](C)O2)Oc2ccc(cc2Cl)[C@H]1O [VANCOMYCIN]	0.5 (≈ 0.725 µg/mL)	0.5 (≈ 0.725 µg/mL)	128 (≈ 186 µg/mL)	128 (≈ 186 µg/mL)	128 (≈ 186 µg/mL)	0.5 (≈ 0.725 µg/mL)	64 (≈ 92.8 µg/mL)	> 128	> 128	> 128	0.25 (≈ 0.362 µg/mL)			

From ChEMBL document CHEMBL4311942, “Design of Trp-Rich Dodecapeptides with Broad-Spectrum Antimicrobial Potency and Membrane-Disruptive Mechanism” (J Med Chem, 2019)
